Source: patent US20090143279A1 (priority 2007, published 2009)
Like-named read-outs stand apart in the source and are kept apart here. Where a SMILES comes first, the peptide text is derived from it.

Experiments:
[1] = tested on: mitochondrial membrane potential; format: cell-based, mouse; settings: for ΔΨm (composite Z-score): normalized score vs mock-treated (DMSO) wells
[2] = tested on: reactive oxygen species; format: cell-based, mouse; settings: for ROS (composite Z-score): normalized score vs mock-treated (DMSO) wells
[3] = tested on: OXPHOS gene expression; format: cell-based, mouse; settings: for GE-HTS (composite Z-score): normalized score vs mock-treated (DMSO) wells
[4] = tested on: nuOXPHOS transcripts; format: cell-based, mouse; settings: for nucOX (composite Z-score): normalized score vs mock-treated (DMSO) wells
[5] = tested on: mtOXPHOS transcripts; format: cell-based, mouse; settings: for mitoOX (composite Z-score): normalized score vs mock-treated (DMSO) wells
[6] = tested on: cytochrome c; format: cell-based, mouse; settings: for cyt c (composite Z-score): normalized score vs mock-treated (DMSO) wells
[7] = tested on: C2C12 myotubes; settings: for Viability (composite Z-score): normalized score vs mock-treated (DMSO) wells
[8] = tested on: cellular dehydrogenase activity; settings: for MTT (composite Z-score): normalized score vs mock-treated (DMSO) wells
[9] = normalized composite Z-score vs mock-treated (DMSO) wells, Conc 20 μM
[10] = composite Z-score vs mock-treated (DMSO) wells, Conc 20 μM
[11] = composite Z-score vs DMSO, Conc 20 μM
[12] = Table 4, C2C12 myotubes, 48 h, composite Z-score

SMILES: COC(=O)c1c(OC)cc2c(c1C)Oc1c(Cl)c(O)c(Cl)c(C)c1C(=O)O2 [gangaleoidin]
- ΔΨm [1, 9]: −1.233
- ROS [2, 9]: 1.356
- GE-HTS [3, 9]: −0.512
- nucOX [4, 9]: −0.587
- mitoOX [5, 9]: −0.310
- cyt c [6, 9]: −0.876
- Viability [7, 9]: 0.889
- MTT [8, 9]: −1.213

SMILES: COc1cc(O)c2c(=O)cc(-c3ccc(O)cc3)oc2c1 [genkwanin]
- ΔΨm (composite Z-score) ([1]; Conc 20 μM): −0.491
- ROS (composite Z-score) ([2]; Conc 20 μM): 3.337
- GE-HTS (composite Z-score) ([3]; Conc 20 μM): 0.425
- nucOX (composite Z-score) ([4]; Conc 20 μM): 0.407
- mitoOX (composite Z-score) ([5]; Conc 20 μM): 0.389
- cyt c (composite Z-score) ([6]; Conc 20 μM): −0.037
- Viability (composite Z-score) ([7]; Conc 20 μM): −0.323
- MTT (composite Z-score) ([8]; Conc 20 μM): −2.090

SMILES: C=C1C[C@]23C[C@@]1(O)CC[C@H]2[C@@]12C=C[C@H](O)[C@@](C)(C(=O)O1)[C@H]2[C@@H]3C(=O)O [gibberellic acid]
- ΔΨm [1]: 2.622
- ΔΨm [1, 10]: −0.439
- ROS [2]: 0.246
- ROS [2, 10]: 0.512
- GE-HTS [3]: 0.021
- GE-HTS [3, 10]: −0.014
- nucOX [4]: 0.066
- nucOX [4, 10]: 0.077
- mitoOX [5]: −0.090
- mitoOX [5, 10]: −0.264
- cyt c [6]: 0.714
- cyt c [6, 10]: 0.031
- Viability [7]: −0.171
- Viability [7, 10]: −0.081
- MTT [8]: −0.432
- MTT [8, 10]: 0.661

SMILES: COc1cc(O)c2c(=O)cc(-c3ccc(OC)c(-c4c(O)cc(O)c5c(=O)cc(-c6ccc(O)cc6)oc45)c3)oc2c1 [ginkgetin]
- ΔΨm [1, 11]: −4.324
- ROS [2, 11]: −1.347
- GE-HTS [3, 11]: −2.228
- nucOX [4, 11]: −2.585
- mitoOX [5, 11]: −1.101
- cyt c [6, 11]: −3.027
- Viability [7, 11]: −1.523
- MTT [8, 11]: −3.855

SMILES: C[C@@H]1C(=O)O[C@H]2C[C@@]34[C@H]5C[C@@H](C(C)(C)C)[C@]36[C@@H](OC(=O)[C@@H]6O)O[C@@]4(C(=O)O5)[C@]21O [ginkgolide A]
- ΔΨm [1, 9]: −0.271
- ROS [2, 9]: 1.848
- GE-HTS [3, 9]: −0.247
- nucOX [4, 9]: −0.286
- mitoOX [5, 9]: −0.123
- cyt c [6, 9]: 0.541
- Viability [7, 9]: 0.380
- MTT [8, 9]: −1.019

SMILES: CC(=O)O[C@H]1CC[C@@]2(C)[C@H](CC[C@@H]3[C@@H]2CC[C@]2(C)[C@@H](C4=CC(=O)OC4)[C@@H](OC(C)=O)C[C@]32O)C1 [gitoxigenin diacetate]
- ΔΨm [1, 11]: −0.792
- ROS [2, 11]: 0.508
- GE-HTS [3, 11]: −0.594
- nucOX [4, 11]: −0.649
- mitoOX [5, 11]: −0.322
- cyt c [6, 11]: 0.684
- Viability [7, 11]: 0.187
- MTT [8, 11]: −1.077

SMILES: OC[C@@H](O)[C@@H](OC1O[C@H](CO)[C@@H](O)[C@H](O)[C@H]1O)[C@H](O)[C@@H](O)CO (stereo partly shown) [glucitol-4-gucopyanoside]
- ΔΨm (composite Z-score) ([1]; Conc 20 μM): −0.454
- ROS (composite Z-score) ([2]; Conc 20 μM): 0.351
- GE-HTS (composite Z-score) ([3]; Conc 20 μM): −1.143
- nucOX (composite Z-score) ([4]; Conc 20 μM): −1.087
- mitoOX (composite Z-score) ([5]; Conc 20 μM): −1.006
- cyt c (composite Z-score) ([6]; Conc 20 μM): 0.305
- Viability (composite Z-score) ([7]; Conc 20 μM): −0.508
- MTT (composite Z-score) ([8]; Conc 20 μM): −0.795

SMILES: CC(C)C[C@H](NC(=O)CN)C(=O)N[C@@H](Cc1ccccc1)C(=O)O [glycylleucylphenylalanine] (H-Gly-Leu-Phe-OH)
- ΔΨm [1, 11]: −0.774
- ROS [2, 11]: 0.973
- GE-HTS [3, 11]: −0.095
- nucOX [4, 11]: 0.033
- mitoOX [5, 11]: −0.322
- cyt c [6, 11]: −0.182
- Viability [7, 11]: −0.254
- MTT [8, 11]: −0.344

SMILES: CC1(C)[C@@H](O[C@H]2O[C@H](C(=O)O)[C@@H](O)[C@H](O)[C@H]2O[C@@H]2O[C@H](C(=O)O)[C@@H](O)[C@H](O)[C@H]2O)CC[C@]2(C)[C@H]3C(=O)C=C4[C@@H]5C[C@@](C)(C(=O)O)CC[C@]5(C)CC[C@@]4(C)[C@]3(C)CC[C@@H]12 [glycyrrhizic acid]
- ΔΨm [1, 11]: −0.606
- ROS [2, 11]: 0.578
- GE-HTS [3, 11]: −0.424
- nucOX [4, 11]: −0.227
- mitoOX [5, 11]: −0.753
- cyt c [6, 11]: 0.339
- Viability [7, 11]: 0.254
- MTT [8, 11]: −0.746

SMILES: COc1cc(OC)c2c(c1Cl)O[C@@]1(C(=O)CC(=O)C[C@H]1C)C2=O [griseofulvic acid, reference compound]
- ΔΨm ([1]; Table 4, C2C12 myotubes, 48 h, JC-1, composite Z-score): −0.666
- ΔΨm [1, 10]: −0.666
- ROS [2, 12]: −0.323
- ROS [2, 10]: −0.323
- GE-HTS [3, 10]: −0.370
- nucOX [4, 10]: −0.442
- mitoOX [5, 10]: −0.209
- cyt c [6, 10]: 0.724
- Viability [7, 12]: 0.176
- Viability [7, 10]: 0.176
- MTT [8, 12]: −0.469
- MTT [8, 10]: −0.469

SMILES: N=C(N)N/N=C/c1c(Cl)cccc1Cl [guanabenz]
- ΔΨm [1, 11]: −1.073
- ROS [2, 11]: 1.527
- GE-HTS [3, 11]: −0.428
- nucOX [4, 11]: −0.286
- mitoOX [5, 11]: −0.563
- cyt c [6, 11]: 0.420
- Viability [7, 11]: −0.404
- MTT [8, 11]: −0.886
